Test results reported in US11535623B2, “Cryptate compounds” (Australian Nuclear Science and Technology Organisation, priority 2011, dated 2022).

What was measured:
[1] = Clearance from the kidneys after administration to mice; format: in vivo, BALB/c mice; details: administered to balb/s mice; Cu complex
Description: For example, the functional group of R^5 may be hydrophobic or may be hydrophilic. Having a hydrophobic entity will encourage clearance of a compound of the present invention that is complexed with a metal ion or metal ion radionuclide through the liver, while a hydrophilic entity will predominantly clear through the kidney.

[2] = 64Cu radiolabelling at room temperature; kinetically inert complexes; cited from earlier work

SMILES | clearance / retention in the kidneys [1] | stability of 64Cu complex to excess EDTA challenge [2]
NC12CNCCNCC(N)(CNCCNC1)CNCCNC2.[Cu+2] [Cu-diamsar] | rapidly cleared from the kidneys | 
C1CNCC2CNCCNCC(CN1)CNCCNC2.[Cu+2] [Cu-sar] | retained for a relatively longer period of time in the kidneys | 
Nc1ccc(CNC23CNCCNCC(N)(CNCCNC2)CNCCNC3)cc1 [Sarar, 1-N-(4-aminobenzyl)-3,6,10,13,16,19-hexaazabicyclo[6.6.6]eicosane-1,8-diamine] |  | stable to excess EDTA challenge
